Experimental data from patent US10584116B2, “Heterocyclic sulfonamide derivative and medicine containing same” (EA Pharma Co., Ltd., priority 2016, dated 2020).
pIC50: −log10 of the molar value.

target: human TRPA1 (Homo sapiens (Human), UniProt O75762); assay: Measurement of TRPA1 antagonist activity (intracellular calcium increase induced by allylisothiocyanate in 293T cells transfected with human TRPA1); assay type: cell-based; conditions: 293T cells expressing human TRPA1, allylisothiocyanate stimulation, FLIPR Calcium4 fluorescence; read-out: hTRPA1 IC50
Sequence (O75762 whole entry): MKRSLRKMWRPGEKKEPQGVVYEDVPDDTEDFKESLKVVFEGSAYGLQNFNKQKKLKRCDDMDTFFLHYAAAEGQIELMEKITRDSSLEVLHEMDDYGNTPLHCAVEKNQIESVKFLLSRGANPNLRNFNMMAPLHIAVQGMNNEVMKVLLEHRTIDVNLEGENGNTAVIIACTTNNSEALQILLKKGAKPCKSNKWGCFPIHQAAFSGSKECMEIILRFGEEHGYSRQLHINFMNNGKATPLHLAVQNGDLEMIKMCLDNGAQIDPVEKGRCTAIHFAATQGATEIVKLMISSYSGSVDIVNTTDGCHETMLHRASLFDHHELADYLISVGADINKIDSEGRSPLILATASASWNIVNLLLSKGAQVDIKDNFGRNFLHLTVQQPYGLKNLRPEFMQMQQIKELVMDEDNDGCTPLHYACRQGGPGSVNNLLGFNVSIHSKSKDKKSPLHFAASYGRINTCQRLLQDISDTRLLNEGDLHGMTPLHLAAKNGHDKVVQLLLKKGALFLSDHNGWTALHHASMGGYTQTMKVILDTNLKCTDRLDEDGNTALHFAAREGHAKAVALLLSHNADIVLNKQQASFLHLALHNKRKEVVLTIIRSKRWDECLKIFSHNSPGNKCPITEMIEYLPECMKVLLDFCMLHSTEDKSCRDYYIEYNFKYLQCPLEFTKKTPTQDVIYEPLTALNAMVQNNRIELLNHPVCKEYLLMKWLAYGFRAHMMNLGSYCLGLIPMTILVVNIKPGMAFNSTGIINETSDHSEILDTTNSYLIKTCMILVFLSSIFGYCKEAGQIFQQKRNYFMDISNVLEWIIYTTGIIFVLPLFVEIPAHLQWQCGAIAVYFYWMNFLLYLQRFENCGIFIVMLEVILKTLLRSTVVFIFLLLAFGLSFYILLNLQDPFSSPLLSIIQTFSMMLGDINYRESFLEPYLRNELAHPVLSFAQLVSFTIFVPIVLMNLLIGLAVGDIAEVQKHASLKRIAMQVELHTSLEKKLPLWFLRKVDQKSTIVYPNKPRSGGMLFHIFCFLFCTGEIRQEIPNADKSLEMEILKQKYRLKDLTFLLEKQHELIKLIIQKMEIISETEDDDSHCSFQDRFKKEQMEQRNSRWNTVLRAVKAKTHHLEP
Description: Measurement of TRPA1 Antagonist Activity
Human TRPA1 Expression Plasmid
Using cDNA encoding human TRPA1 (GenBank accession No. NM_007332) (manufactured by Kazusa DNA Research Institute, item No. FHC07217) as a template, primer 1 (SEQ ID NO: 1) and primer 2 (SEQ ID NO: 2), PCR by PfuUltra High-Fidelity DNA Polymerase (Stratagene) was performed, and full-length human TRPA1 gene was amplified.
A recognition site (underlined) of restriction enzyme HindIII was added to the 5′ end of human TRPA1 gene, and XbaI site (underlined) was added to the 3′ end of human TRPA1 gene, and GTT of the template sequence was changed to termination codon TAG (bold). The obtained double stranded DNA was enzyme-digested with HindIII and XbaI, and introduced into a multicloning site of expression plasmid pcDNA3.1/zeo(+) (manufactured by Invitrogen) to give a human TRPA1 expression plasmid.
Human embryonic kidney-derived 293T cells were cultured in Dulbecco's Modified Eagle Medium containing 10% fetal bovine serum, 10 unit penicillin, and 10 μg streptomycin. One day before assay, 3×10^6 of 293T cells were plated on a petri dish having a diameter of 10 cm, and cultured in a CO2 incubator for 24 hr. OPTI-MEM I Reduced Serum Media (Invitrogen) (600 μL), Mirus TransIT-293 (Mirus Bio) (18 μL), and human TRPA1 expression plasmid (6 μg) were mixed, the total amount of the mixture was added to the cells on the petri dish to allow for gene transfer. The cells were recovered about for 8 hr later, plated on a poly-D-lysine coated 384 well black/clear bottom plate at 12,000 cells/well, and cultured overnight.
Measurement of Intracellular Calcium Increase
The medium was removed from the 384 well plate, calcium indicator (Molecular Device, trade name: FLIPR Calcium4 Assay Kit) dissolved in HBSS (Thermo Fisher Scientific) (pH 7.2) containing 20 mM HEPES was added (38 μL/well), and the cells were stained in a CO2 incubator for 1 hr. The 384 well plate was stood at room temperature for not less than 15 min, set on FDSS7000 (Hamamatsu Photonics K.K.), and a test substance solution was added at 10 μL/well. After 10 min, allylisothiocyanate solution (12 μL/well) was added, the relative fluorescence intensity was measured for 5 min after addition of the allylisothiocyanate solution.
Test Substance Preparation
Preparation of Test Substance Solution and Allylisothiocyanate Solution
A test substance solution was prepared to have a composition of HBSS (Thermo Fisher Scientific) (pH 7.2) containing 0.48% dimethyl sulfoxide, a test substance at 4.8-fold concentration of the evaluation concentration, 0.1% bovine serum albumin and 20 mM HEPES. An allylisothiocyanate solution was prepared to have a composition of HBSS (Thermo Fisher Scientific) (pH 7.2) containing 0.1% dimethyl sulfoxide, 100 μM allylisothiocyanate, 0.1% bovine serum albumin and 20 mM HEPES.
Calculation of Antagonist Activity
The activity rate of a test substance at each concentration was calculated, wherein the relative fluorescence intensity change of a well free of a test substance and containing allylisothiocyanate is 100% activity rate, and the relative fluorescence intensity change of a well free of a test substance and allylisothiocyanate is 0% activity rate. The inhibitory rate of a test substance at each concentration was calculated by subtracting the activity rate of the test substance from 100% activity rate, and the concentration of a test substance showing 50% inhibitory rate was calculated as IC50 from the sigmoid approximate curve by XLfit (idbs).

| Structure (SMILES) | pIC50 |
| --- | --- |
| CC(C)n1c(=O)c(CNC(=O)[C@@H]2CCCN2S(=O)(=O)c2cc3cc(F)ccc3o2)cn(-c2ccc(C(F)(F)F)cn2)c1=O [Example 34, (2S)-1-(5-fluorobenzofuran-2-yl)sulfonyl-N-[[3-isopropyl-2,4-dioxo-1-[5-(trifluoromethyl)-2-pyridyl]pyrimidin-5-yl]methyl]pyrrolidine-2-carboxamide] | 7.74 |
| CC(C)n1c(=O)c(CNC(=O)[C@@H]2CC(F)(F)CN2S(=O)(=O)c2cc3cc(F)ccc3o2)cn(-c2ccc(C(F)(F)F)cc2)c1=O [Example 17, (2S)-4,4-difluoro-1-(5-fluorobenzofuran-2-yl)sulfonyl-N-[[3-isopropyl-2,4-dioxo-1-[4-(trifluoromethyl)phenyl]pyrimidin-5-yl]methyl]pyrrolidine-2-carboxamide] | 7.34 |
| CC(C)n1c(=O)c(CNC(=O)[C@@H]2CCCN2S(=O)(=O)c2cc3ccccc3s2)cn(-c2ccc(C(F)(F)F)cc2)c1=O [Example 19, (2S)-1-(benzothiophen-2-ylsulfonyl)-N-[[3-isopropyl-2,4-dioxo-1-[4-(trifluoromethyl)phenyl]-pyrimidin-5-yl]methyl]pyrrolidine-2-carboxamide] | 7.25 |
| CC(C)n1cc(-c2ccc(C(F)(F)F)cn2)cc(CNC(=O)[C@@H]2CCCN2S(=O)(=O)c2cc3cc(F)ccc3o2)c1=O [Example 43, (2S)-1-(5-fluorobenzofuran-2-yl)sulfonyl-N-[[1-isopropyl-2-oxo-5-[5-(trifluoromethyl)-2-pyridyl]-3-pyridyl]methyl]pyrrolidine-2-carboxamide] | 7.64 |
| CC(C)n1c(=O)c(CNC(=O)[C@@H]2CCN2S(=O)(=O)c2cc3cc(F)ccc3o2)cn(-c2ccc(C(F)(F)F)cc2)c1=O [Example 18, (2S)-1-(5-fluorobenzofuran-2-yl)sulfonyl-N-[[3-isopropyl-2,4-dioxo-1-[4-(trifluoromethyl)phenyl]-pyrimidin-5-yl]methyl]azetidine-2-carboxamide] | 8.05 |
| CC(C)n1c(=O)c(CNC(=O)[C@@H]2CCCN2S(=O)(=O)c2cc3cc(F)ccc3o2)cn(-c2ccc(Cl)cc2)c1=O [Example 41, (2S)-N-[[1-(4-chlorophenyl)-3-isopropyl-2,4-dioxo-pyrimidin-5-yl]methyl]-1-(5-fluorobenzofuran-2-yl)sulfonyl-pyrrolidine-2-carboxamide] | 7.62 |
| CC(C)n1c(=O)c(CNC(=O)[C@@H]2[C@@H](O)CCN2S(=O)(=O)c2cc3ccccc3o2)cn(-c2ccc(C(F)(F)F)cc2)c1=O [Example 7, (2S,3S)-1-(benzofuran-2-ylsulfonyl)-3-hydroxy-N-[[3-isopropyl-2,4-dioxo-1-[4-(trifluoromethyl)phenyl]-pyrimidin-5-yl]methyl]pyrrolidine-2-carboxamide] | 6.66 |
| CC(C)n1c(=O)c(CNC(=O)[C@@H]2CCCN2S(=O)(=O)c2cc3cnccc3o2)cn(-c2ccc(C(F)(F)F)cn2)c1=O [Example 36, (2S)-1-fro[3,2-c]pyridin-2-ylsulfonyl-N-[[3-isopropyl-2,4-dioxo-1-[5-(trifluoromethyl)-2-pyridyl]pyrimidin-5-yl]methyl]pyrrolidine-2-carboxamide] | 6.70 |
| O=C(NCc1ccc(=O)n(-c2ccc(C(F)(F)F)cc2)c1)[C@@H]1CCCN1S(=O)(=O)c1cc2cc(F)ccc2o1 [Example 22, (2S)-1-(5-fluorobenzofuran-2-yl)sulfonyl-N-[[6-oxo-1-[4-(trifluoromethyl)phenyl]-3-pyridyl]methyl]pyrrolidine-2-carboxamide] | 7.22 |
| CC(C)n1cc(-c2ccc(C(F)(F)F)cc2)cc(CNC(=O)[C@@H]2CCCN2S(=O)(=O)c2cc3ccccc3o2)c1=O [Example 15, (2S)-1-(benzofuran-2-ylsulfonyl)-N-[[1-isopropyl-2-oxo-5-[4-(trifluoromethyl)phenyl]-3-pyridyl]methyl]pyrrolidine-2-carboxamide] | 7.10 |
| CC(C)n1cc(CNC(=O)[C@@H]2CCCN2S(=O)(=O)c2cc3ccccc3o2)cc(-c2ccc(C(F)(F)F)cn2)c1=O [Example 50, (2S)-1-(benzofuran-2-ylsulfonyl)-N-[[1-isopropyl-6-oxo-5-[5-(trifluoromethyl)-2-pyridyl]-3-pyridyl]methyl]pyrrolidine-2-carboxamide] | 6.96 |
| CC(C)n1cc(-c2ccc(C(F)(F)F)cn2)cc(CNC(=O)[C@@H]2CCCN2S(=O)(=O)c2cc3ccccc3o2)c1=O [Example 42, (2S)-1-(benzofuran-2-ylsulfonyl)-N-[[1-isopropyl-2-oxo-5-[5-(trifluoromethyl)-2-pyridyl]-3-pyridyl]methyl]pyrrolidine-2-carboxamide] | 7.10 |
| CC(C)n1c(=O)c(CNC(=O)[C@@H]2CCCN2S(=O)(=O)c2cc3ccccc3o2)cn(-c2ccc(Cl)cc2)c1=O [Example 40, (2S)-1-(benzofuran-2-ylsulfonyl)-N-[[1-(4-chlorophenyl)-3-isopropyl-2,4-dioxo-pyrimidin-5-yl]methyl]pyrrolidine-2-carboxamide] | 7.07 |
| CC(C)n1c(=O)c(CNC(=O)[C@@H]2CCCN2S(=O)(=O)c2cc3ccccc3o2)cn(-c2ccc(C(F)(F)F)nc2)c1=O [Example 29, (2S)-1-(benzofuran-2-ylsulfonyl)-N-[[3-isopropyl-2,4-dioxo-1-[6-(trifluoromethyl)-3-pyridyl]pyrimidin-5-yl]methyl]pyrrolidine-2-carboxamide] | 7.52 |
| C[C@H](NS(=O)(=O)c1cc2cc(F)ccc2o1)C(=O)NCc1cn(-c2ccc(C(F)(F)F)cc2)c(=O)n(C)c1=O [Example 6, (2S)-2-[(5-fluorobenzofuran-2-yl)sulfonylamino]-N-[[3-methyl-2,4-dioxo-1-[4-(trifluoromethyl)phenyl]-pyrimidin-5-yl]methyl]propanamide] | 6.27 |
| CC(C)n1c(=O)c(CNC(=O)[C@@H]2CCCN2S(=O)(=O)c2cc3c(F)cccc3o2)cn(-c2ccc(C(F)(F)F)cc2)c1=O [Example 10, (2S)-1-(4-fluorobenzofuran-2-yl)sulfonyl-N-[[3-isopropyl-2,4-dioxo-1-[4-(trifluoromethyl)phenyl]-pyrimidin-5-yl]methyl]pyrrolidine-2-carboxamide] | 7.60 |
| CC(C)n1cc(CNC(=O)[C@@H]2CCCN2S(=O)(=O)c2cc3c(F)cccc3o2)cc(-c2ccc(C(F)(F)F)cc2)c1=O [Example 45, (2S)-1-(4-fluorobenzofuran-2-yl)sulfonyl-N-[[1-isopropyl-6-oxo-5-[4-(trifluoromethyl)phenyl]-3-pyridyl]methyl]pyrrolidine-2-carboxamide] | 7.07 |
| CC(C)n1c(=O)c(CNC(=O)[C@@H]2CCCN2S(=O)(=O)c2cc3cc(F)ccc3o2)cn(-c2ccc(F)cc2)c1=O [Example 39] | 7.00 |
| CC(C)n1cc(CNC(=O)[C@@H]2CCCN2S(=O)(=O)c2cc3ccccc3o2)cc(-c2ccc(C(F)(F)F)cc2)c1=O [Example 13, (2S)-1-(benzofuran-2-ylsulfonyl)-N-[[1-isopropyl-6-oxo-5-[4-(trifluoromethyl)phenyl]-3-pyridyl]methyl]pyrrolidine-2-carboxamide] | 7.57 |
| CC(C)n1cc(-c2ccc(C(F)(F)F)nc2)cc(CNC(=O)[C@@H]2CCCN2S(=O)(=O)c2cc3ccccc3o2)c1=O [Example 28, (2S)-1-(benzofuran-2-ylsulfonyl)-N-[[1-isopropyl-2-oxo-5-[6-(trifluoromethyl)-3-pyridyl]-3-pyridyl]methyl]pyrrolidine-2-carboxamide] | 6.74 |
